Several values for one entry are separate records, joined by “and”; a condition that tells them apart may be missing. Equal entries are not always repeated. Toxic doses and inconclusive results are not listed.
System: P388 leukemia ip, CD2F1 mice, survival T/C
Assay: NCI In Vivo Anticancer Drug Screen. Data for tumor model P388 Leukemia (intraperitoneal) in CD2F1 (CDF1) mice
Conditions: endpoint: median survival time, higher = longer survival
Method in brief: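 Mice carrying the transplanted tumor received test compound or vehicle. Survival was recorded in each group, and the value is the treated-group measurement divided by that of the vehicle-treated control group.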

[1] = dose: 120.0 mg/kg/injection, schedule: Q01DX005 (ip), vehicle: saline with Tween-80
[2] = dose: 240.0 mg/kg/injection, schedule: Q01DX005 (ip), vehicle: saline with Tween-80

CC(C)NC(=O)c1ccc(C/[N+]([O-])=C/c2ccccc2)cc1
T/C (dose: 50.0 mg/kg/injection, schedule: Q01DX009 (ip), vehicle: distilled water + Tween-80): 95 % of control | T/C (dose: 50.0 mg/kg/injection, schedule: Q01DX009 (ip), vehicle: other): 121 % of control | T/C (dose: 100.0 mg/kg/injection, schedule: Q01DX009 (ip), vehicle: distilled water + Tween-80): 92 % of control and 95 % of control | T/C (dose: 100.0 mg/kg/injection, schedule: Q01DX009 (ip), vehicle: other): 103 % of control | T/C (dose: 200.0 mg/kg/injection, schedule: Q01DX009 (ip), vehicle: distilled water + Tween-80): 89 % of control and 92 % of control | T/C (dose: 200.0 mg/kg/injection, schedule: Q01DX009 (ip), vehicle: other): 116 % of control | T/C (dose: 400.0 mg/kg/injection, schedule: Q01DX009 (ip), vehicle: distilled water + Tween-80): 92 % of control | T/C (dose: 800.0 mg/kg/injection, schedule: Q01DX009 (ip), vehicle: other): 153 % of control

N#CC1Sc2ccccc2N1C(=O)OCc1ccccc1 (configuration not stated)
T/C (dose: 60.0 mg/kg/injection, schedule: Q01DX005 (ip), vehicle: saline with Tween-80): 93 % of control | T/C [1]: 92 % of control | T/C [2]: 91 % of control

CC(C)CC(NC(=O)OC(C)(C)C)C(=O)CBr (configuration not stated)
T/C (dose: 12.5 mg/kg/injection, schedule: Q01DX001 (ip), vehicle: saline with Tween-80): 105 % of control | T/C (dose: 25.0 mg/kg/injection, schedule: Q01DX001 (ip), vehicle: saline with Tween-80): 105 % of control | T/C (dose: 50.0 mg/kg/injection, schedule: Q01DX001 (ip), vehicle: saline with Tween-80): 96 % of control

COCN(C)N=Nc1ccc(C(C)=O)cc1
T/C (dose: 50.0 mg/kg/injection, schedule: Q01DX005 (ip), vehicle: Klucel (hydroxypropylcellulose) (HPC)): 100 % of control | T/C (dose: 100.0 mg/kg/injection, schedule: Q01DX005 (ip), vehicle: Klucel (hydroxypropylcellulose) (HPC)): 104 % of control | T/C (dose: 200.0 mg/kg/injection, schedule: Q01DX005 (ip), vehicle: Klucel (hydroxypropylcellulose) (HPC)): 121 % of control

N#Cc1c(N)nc2c(c(-c3ccc(Cl)cc3)nn2-c2ccccc2)c1C#N
T/C (dose: 7.5 mg/kg/injection, schedule: Q01DX005 (ip), vehicle: saline with Tween-80): 97 % of control | T/C (dose: 15.0 mg/kg/injection, schedule: Q01DX005 (ip), vehicle: saline with Tween-80): 86 % of control and 96 % of control | T/C (dose: 30.0 mg/kg/injection, schedule: Q01DX005 (ip), vehicle: saline with Tween-80): 89 % of control and 90 % of control | T/C [1]: 86 % of control and 91 % of control | T/C [2]: 93 % of control
